The text below walks through data of patent publication US6432946B1, “3-aminoalkylamino-2H-1,4-benzoxazines and 3-aminoalkylamino-2H-1,4-benzothiazines: dopamine receptor subtype specific ligands” (Neurogen corporation, priority 1997, dated 2002).

Where a name gives a salt, the structure may show the parent alone.

Data set [1] concerns the target T1, D2 receptors (Chlorocebus aethiops, UniProt P52702).
T1 construct: expressed in transfected cells; host or cells: COS cells
Description: Assay for D2 receptor binding activity (3H-YM 09151-2 displacement). Also noted: species or system African Green monkey. Particulars: COS cell pellets with recombinant receptor; 0.5 nM 3H-YM 09151-2; test compounds are acid addition salts. As to the method:
Assay for D2 and D4 Receptor Binding Activity
Pellets of COS cells containing recombinantly produced D2 or D4 receptors from African Green monkey are used for the assays. The sample is homogenized in 100 volumes (w/vol) of 0.05 M Tris HCl buffer at 4° C. and pH 7.4. The sample is then centrifuged at 30,000× g and resuspended and rehomogenized. The sample is again centrifuged as described above and the final tissue sample is frozen until use. The tissue is resuspended 1:20 (wt/vol) in 0.05 M Tris HCl buffer containing 100 mM NaCl.
Incubations are carried out at […] and contain 0.4 ml of tissue sample, 0.5 nM ^3H-YM 09151-2 (Nemonapride, cis-5-Chloro-2-methoxy-4-(methylamino)-N-(2-methyl-2-(phenylmethyl)-3-pyrrolidinyl)benzamide)and the test compound in a total incubation of 1.0 ml. Nonspecific binding is defined as that binding found in the presence of 1 mM spiperone; without further additions, nonspecific binding is less than 20% of total binding. Binding characteristics of examples of the invention for the D2 and D4 receptor subtypes are shown in Table 2 for […].

T1 sequence (P52702 whole entry): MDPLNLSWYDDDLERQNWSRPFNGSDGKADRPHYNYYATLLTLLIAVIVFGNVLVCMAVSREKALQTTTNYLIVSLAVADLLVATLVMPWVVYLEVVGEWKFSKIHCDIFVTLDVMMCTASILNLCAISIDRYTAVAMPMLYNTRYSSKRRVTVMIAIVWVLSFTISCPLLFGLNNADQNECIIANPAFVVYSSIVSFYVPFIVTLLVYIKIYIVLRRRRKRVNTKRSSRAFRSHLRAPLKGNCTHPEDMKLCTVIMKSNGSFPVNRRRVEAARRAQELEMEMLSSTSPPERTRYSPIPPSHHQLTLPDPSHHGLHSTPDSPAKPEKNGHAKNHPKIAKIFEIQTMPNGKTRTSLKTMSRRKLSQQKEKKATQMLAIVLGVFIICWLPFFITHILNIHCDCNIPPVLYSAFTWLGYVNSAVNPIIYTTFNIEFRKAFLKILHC

`Fc1cnc(N2CCN(CCNC3=Nc4ccccc4OC3)CC2)nc1` [Compound 6, 3-(1-[2-{(4-[5-Fluoropyrimidin-2-yl])piperazin-1-yl}]ethyl)amino-2H-1,4-benzoxazine fumarate]: in data set [1], the Ki is over 100 nM. Turning to `Fc1cnc(N2CCN(CCNC3=Nc4ccccc4OC3)CC2)nc1` (as salt: fumarate) [Compound 6, 3-(1-[2-{(4-[5-Fluoropyrimidin-2-yl])piperazin-1-yl}]ethyl)amino-2H-1,4-benzoxazine fumarate], the melting point was 163 to 164 °C. For `c1cnc(N2CCN(CCCNC3=Nc4ccccc4SC3)CC2)nc1` [Compound 4], in data set [1], the Ki was over 100 nM. In the case of `c1cnc(N2CCN(CCCCNC3=Nc4ccccc4OC3)CC2)nc1` [Compound 1, 3-(1-[4-{(4-Pyrimidin-2-yl)piperazin-1-yl}]butyl) amino-2H-1,4-benzoxazine Difumarate], the Ki in data set [1] was over 1000 nM.

The term Ki denotes the dissociation constant of the complex between target and ligand, obtained from inhibition or displacement. As a reminder, the melting point is the temperature, or range, at which the solid turns liquid.
